According to PubChem BioAssay (NCI):
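Assay format: 96-well plates, 48-hour exposure. TGI denotes the concentration required for complete inhibition of growth.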 Where a SMILES comes first, the peptide text is derived from it. The star is where a group is joined. Ethyl(2-NMe3+) = C[N+](C)(C)CC*; Boc = CC(C)(C)OC(=O)*

Tests used:
Assay in all cases: growth of human tumour cells (NCI), 48 h
HCT-116 colon = tested on: HCT-116 colon
BT-549 breast = tested on: BT-549 breast
NCI-H460 lung = tested on: NCI-H460 lung
OVCAR-8 ovarian = tested on: OVCAR-8 ovarian
MALME-3M melanoma = tested on: MALME-3M melanoma
SK-MEL-28 melanoma = tested on: SK-MEL-28 melanoma
KM12 colon = tested on: KM12 colon
HCT-15 colon = tested on: HCT-15 colon
SF-295 CNS = tested on: SF-295 CNS
SF-539 CNS = tested on: SF-539 CNS
HS 578T breast = tested on: HS 578T breast
COLO 205 colon = tested on: COLO 205 colon
HOP-62 NSCLC = tested on: HOP-62 NSCLC
OVCAR-3 ovarian = tested on: OVCAR-3 ovarian
NCI-H23 lung = tested on: NCI-H23 lung
UACC-62 melanoma = tested on: UACC-62 melanoma
MCF7 breast = tested on: MCF7 breast
SR leukemia = tested on: SR leukemia

CCN(CC)c1c(-c2c(N(CC)CC)c(OC(C)=O)c3sccn3c2=O)c(=O)n2ccsc2c1OC(C)=O
TGI (HCT-116 colon): > 100 µM | TGI (BT-549 breast): > 100 µM | TGI (NCI-H460 lung): > 100 µM | TGI (OVCAR-8 ovarian): > 100 µM | TGI (MALME-3M melanoma): > 100 µM | TGI (SK-MEL-28 melanoma): > 100 µM | TGI (KM12 colon): > 100 µM | TGI (HCT-15 colon): > 100 µM | TGI (SF-295 CNS): > 100 µM | TGI (SF-539 CNS): > 100 µM | TGI (HS 578T breast): > 100 µM | TGI (COLO 205 colon): > 100 µM | TGI (HOP-62 NSCLC): 46.9 µM | TGI (OVCAR-3 ovarian): > 100 µM | TGI (NCI-H23 lung): > 100 µM | TGI (UACC-62 melanoma): > 100 µM

Cc1ccc(C(=O)Nc2ccc(CP(=O)(O)O)cc2CP(=O)(O)O)cc1NC(=O)c1cccc(NC(=O)Nc2cccc(C(=O)Nc3cc(C(=O)Nc4ccc(CP(=O)(O)O)cc4CP(=O)(O)O)ccc3C)c2)c1
TGI (HCT-116 colon): > 100 µM | TGI (BT-549 breast): > 100 µM | TGI (NCI-H460 lung): > 100 µM | TGI (OVCAR-8 ovarian): > 100 µM | TGI (MALME-3M melanoma): > 100 µM | TGI (SK-MEL-28 melanoma): > 100 µM | TGI (KM12 colon): > 100 µM | TGI (HCT-15 colon): > 100 µM | TGI (SF-295 CNS): > 100 µM | TGI (SF-539 CNS): > 100 µM | TGI (HS 578T breast): > 100 µM | TGI (COLO 205 colon): > 100 µM | TGI (MCF7 breast): > 100 µM | TGI (HOP-62 NSCLC): > 100 µM | TGI (OVCAR-3 ovarian): > 100 µM | TGI (NCI-H23 lung): > 100 µM | TGI (UACC-62 melanoma): > 100 µM

Cc1ccc(/C=C2\CN(C)CC3C2=NN(c2ccccc2)C3c2ccc(C)cc2)cc1 (stereo unspecified)
TGI (HCT-116 colon): > 100 µM | TGI (BT-549 breast): > 100 µM | TGI (NCI-H460 lung): > 100 µM | TGI (OVCAR-8 ovarian): > 100 µM | TGI (MALME-3M melanoma): > 100 µM | TGI (SK-MEL-28 melanoma): > 100 µM | TGI (KM12 colon): > 100 µM | TGI (HCT-15 colon): > 100 µM | TGI (SF-295 CNS): > 100 µM | TGI (HS 578T breast): > 100 µM | TGI (COLO 205 colon): > 100 µM | TGI (MCF7 breast): > 100 µM | TGI (HOP-62 NSCLC): > 100 µM | TGI (OVCAR-3 ovarian): > 100 µM | TGI (NCI-H23 lung): > 100 µM | TGI (UACC-62 melanoma): > 100 µM

CCCCN(Cc1ccccc1)C(=NC#N)N(Cc1ccccc1)Cc1ccccc1
TGI (HCT-116 colon): 31.8 µM | TGI (BT-549 breast): 62.8 µM | TGI (NCI-H460 lung): > 100 µM | TGI (OVCAR-8 ovarian): > 100 µM | TGI (MALME-3M melanoma): 79.4 µM | TGI (SK-MEL-28 melanoma): > 100 µM | TGI (KM12 colon): 54 µM | TGI (HCT-15 colon): 77.2 µM | TGI (SF-295 CNS): > 66 µM | TGI (SF-539 CNS): 46.8 µM | TGI (HS 578T breast): 99.1 µM | TGI (COLO 205 colon): 32.2 µM | TGI (MCF7 breast): > 100 µM | TGI (HOP-62 NSCLC): 75.3 µM | TGI (OVCAR-3 ovarian): 28.9 µM | TGI (NCI-H23 lung): > 74.5 µM | TGI (UACC-62 melanoma): 74.7 µM

C=CCc1ccccc1CC1(OCC)OC(=O)c2ccccc21 (stereo unspecified)
TGI (HCT-116 colon): > 100 µM | TGI (BT-549 breast): > 100 µM | TGI (NCI-H460 lung): > 100 µM | TGI (OVCAR-8 ovarian): > 100 µM | TGI (SK-MEL-28 melanoma): > 100 µM | TGI (HCT-15 colon): > 100 µM | TGI (SF-295 CNS): > 100 µM | TGI (SF-539 CNS): > 100 µM | TGI (HS 578T breast): > 100 µM | TGI (COLO 205 colon): > 100 µM | TGI (MCF7 breast): > 100 µM | TGI (HOP-62 NSCLC): > 100 µM | TGI (OVCAR-3 ovarian): > 100 µM | TGI (NCI-H23 lung): > 100 µM | TGI (UACC-62 melanoma): > 100 µM

CC1OC(OC2C(OC(=O)[C@@H]3CC(C)(C)C[C@@H]4C5=CC[C@@H]6[C@@]7(C)C[C@H](O)[C@H](OC8OC(CO)C(O)C(O)C8O)[C@@](C)(CO)C7[C@H](O)C[C@@]6(C)[C@]5(C)C[C@@H](O)[C@H]43)OCC(O)C2O)C(O)C(O)C1O (stereo partly specified)
TGI (HCT-116 colon): > 15 µM | TGI (BT-549 breast): > 15 µM | TGI (NCI-H460 lung): > 15 µM | TGI (OVCAR-8 ovarian): > 15 µM | TGI (KM12 colon): > 15 µM | TGI (HCT-15 colon): > 15 µM | TGI (SF-295 CNS): > 15 µM | TGI (SF-539 CNS): > 15 µM | TGI (HS 578T breast): > 15 µM | TGI (COLO 205 colon): > 15 µM | TGI (MCF7 breast): > 15 µM | TGI (HOP-62 NSCLC): > 15 µM | TGI (OVCAR-3 ovarian): > 15 µM | TGI (NCI-H23 lung): > 15 µM | TGI (UACC-62 melanoma): > 15 µM

Cc1cc2nc(N3C(=O)/C(=C/c4ccccc4S)N=C3c3ccccc3)sc2cc1C
TGI (HCT-116 colon): 61.3 µM | TGI (SR leukemia): > 100 µM | TGI (BT-549 breast): > 100 µM | TGI (NCI-H460 lung): > 100 µM | TGI (OVCAR-8 ovarian): > 100 µM | TGI (SK-MEL-28 melanoma): > 100 µM | TGI (KM12 colon): > 100 µM | TGI (HCT-15 colon): > 100 µM | TGI (SF-295 CNS): > 100 µM | TGI (SF-539 CNS): > 100 µM | TGI (HS 578T breast): > 100 µM | TGI (COLO 205 colon): 98.5 µM | TGI (MCF7 breast): > 100 µM | TGI (HOP-62 NSCLC): > 100 µM | TGI (OVCAR-3 ovarian): > 100 µM | TGI (UACC-62 melanoma): > 100 µM

CN(N)/N=N/c1nc[nH]c1[N+](=O)[O-]
TGI (HCT-116 colon): > 100 µM | TGI (BT-549 breast): > 100 µM | TGI (NCI-H460 lung): > 100 µM | TGI (OVCAR-8 ovarian): > 100 µM | TGI (MALME-3M melanoma): > 100 µM | TGI (SK-MEL-28 melanoma): > 100 µM | TGI (KM12 colon): > 100 µM | TGI (HCT-15 colon): > 100 µM | TGI (SF-295 CNS): > 100 µM | TGI (SF-539 CNS): > 100 µM | TGI (HS 578T breast): > 100 µM | TGI (COLO 205 colon): > 100 µM | TGI (HOP-62 NSCLC): > 100 µM | TGI (OVCAR-3 ovarian): > 100 µM | TGI (NCI-H23 lung): > 100 µM | TGI (UACC-62 melanoma): > 100 µM

C#C[C@]1(O)CC[C@H]2[C@@H]3CCC4=C/C(=N/NC(=O)c5cccc6cc7ccccc7nc56)CC[C@@H]4[C@H]3CC[C@@]21CC
TGI (HCT-116 colon): > 100 µM | TGI (SR leukemia): > 100 µM | TGI (BT-549 breast): > 100 µM | TGI (NCI-H460 lung): > 100 µM | TGI (OVCAR-8 ovarian): > 100 µM | TGI (SK-MEL-28 melanoma): > 100 µM | TGI (KM12 colon): > 100 µM | TGI (HCT-15 colon): > 100 µM | TGI (SF-539 CNS): > 100 µM | TGI (HS 578T breast): > 100 µM | TGI (COLO 205 colon): > 100 µM | TGI (MCF7 breast): > 100 µM | TGI (HOP-62 NSCLC): > 100 µM | TGI (OVCAR-3 ovarian): > 100 µM | TGI (NCI-H23 lung): > 100 µM | TGI (UACC-62 melanoma): > 100 µM

CC(NC(=O)C(Cc1ccc(OCC[N+](C)(C)C)cc1)NC(=O)OC(C)(C)C)C(=O)NC(Cc1ccccc1)C(=O)NCC(N)=O (stereo unspecified) (Boc-Y(Ethyl(2-NMe3+))AFG-NH2; configuration not given here)
TGI (HCT-116 colon): > 100 µM | TGI (BT-549 breast): 45.8 µM | TGI (NCI-H460 lung): > 100 µM | TGI (OVCAR-8 ovarian): 55.3 µM | TGI (MALME-3M melanoma): 69.7 µM | TGI (SK-MEL-28 melanoma): > 100 µM | TGI (KM12 colon): > 100 µM | TGI (HCT-15 colon): > 100 µM | TGI (SF-295 CNS): 17.4 µM | TGI (SF-539 CNS): 25.5 µM | TGI (HS 578T breast): 83 µM | TGI (COLO 205 colon): > 100 µM | TGI (MCF7 breast): > 100 µM | TGI (HOP-62 NSCLC): 14.5 µM | TGI (OVCAR-3 ovarian): 60.3 µM | TGI (NCI-H23 lung): 31.8 µM | TGI (UACC-62 melanoma): 71.7 µM
